Measured values reported in PMC10958470 (Virus Research, 2024).
Several values for one entry are separate records, joined by “and”; a condition that tells them apart may be missing. Identical values can stand only once. Counter-ions that a name gives are not always drawn. Like-named read-outs stand apart in the source and are kept apart here.

How the values were obtained:
[1] = target: SARS-CoV-2 RdRp nsp12/7/8 complex (Severe acute respiratory syndrome coronavirus 2, UniProt P0DTD1); test: biochemical; format: biochemical; conditions: for inhibition at 20 µM: read-out: RdRp Inhibition [%] 20 µM (PS Inhibition RdRp [%])
[2] = target: SARS-CoV-2 helicase (nsp13) (Severe acute respiratory syndrome coronavirus 2, UniProt P0DTD1); test: biochemical; format: biochemical
[3] = system: annealed dsDNA substrate
[4] = target: SARS-CoV-2 nsp13 NTPase activity (Severe acute respiratory syndrome coronavirus 2, UniProt P0DTD1); test: biochemical; format: biochemical; conditions: for inhibition at 20 µM: read-out: ATPase inhibition [%] 20 µM (HC Helicase ATPase inhibition [%])
[5] = target: SARS-CoV-2 helicase (Severe acute respiratory syndrome coronavirus 2, UniProt P0DTD1); format: binding
[6] = target: RdRp complex (Severe acute respiratory syndrome coronavirus 2, UniProt P0DTD1); format: binding, SARS-CoV-2
[7] = read-out: DTT Helicase unwinding inhibition [%] 2.5 µM triplicates
[8] = read-out: Helicase Inhibition [%] 20 µM (PS Inhibition Helicase [%])
[9] = read-out: Helicase unwinding inhibition 2.5 µM triplicates

Compound	RdRp Inhibition [%] 20 µM (PS Inhibition RdRp [%]) [1] [%]	Helicase Inhibition [%] 20 µM (PS Inhibition Helicase [%]) [2] [%]	PicoGreen effect [%] 20 µM [3] [%]	inhibition at 20 µM [2, 8] [%]	IC50 ([1]; RdRp IC50 [µM]) [µM]	inhibition at 20 µM [1] [%]	also measured
N#C/C(=C\c1ccc(O)c(O)c1)C(=O)OCCc1cccs1 [2-TEDC]	97.86	8.66	7.15	–	–	–	IC50 ([1]; read-out: RdRp IC50): 7.99 µM
O=C(O[C@@H]1Cc2c(O)cc(O)cc2O[C@@H]1c1cc(O)c(O)c(O)c1)c1cc(O)c(O)c(O)c1 [(−)-epigallocatechin gallate]	85.49	–	–	96.4	–	–	DTT Helicase ATPase activity PLUS DNA substrate 2 µM [4]: 31.66; DTT Helicase ATPase activity [%] 2 µM [4]: 43.42%; gain of ATPase activity reduction in the presence of dsDNA substrate [4]: 10–15%; DTT nsp13 inhibition [%] 20 µM (DTT HC Helicase inhibition [%]) [2]: 78.10%; inhibition at 2.5 µM [2, 7]: 73.5%; Helicase Tm °C 20 µM [5]: 38.4 °C; Helicase Tm °C 100 µM [5]: 39.6 °C; effect on helicase Tm [5]: did not result in a Tm change
Nc1ncnc2c1ncn2[C@@H]1O[C@H](COP(=O)(O)OP(=O)(O)OP(=O)(O)O)[C@@H](O)[C@H]1O [ATP, adenosine triphosphate]	–	–	–	–	–	–	apparent Kmapp (RdRp substrates) [1]: 102.7 µM; Kmapp (mM) ATP, - DTT [2]: 1.9 mM
O=C(O)c1ccccc1Nc1ccc(CCc2ccc(Cl)c(Cl)c2)cc1 [PD-118057]	81.81	7.76	11.19	–	–	–	IC50 ([1]; read-out: RdRp IC50): > 20 µM
C=CCn1c(CSc2ccccc2[N+](=O)[O-])n[nH]c1=S [SSYA10-001]	–	–	–	–	–	–	inhibition of helicase NTPase activity, absence of DTT [4]: inhibits NTPase activity only in the absence of DTT; inhibition of helicase unwinding activity in presence of DTT [2]: effectively eliminated the inhibition
CC(C)c1ccccc1Cc1cc(C(=O)Nc2ccc(S(=O)(=O)c3ccccc3C(C)(C)C)cc2)c(O)c(O)c1O [TW-37]	89.4	3.76	3.9	–	–	–	IC50 ([1]; read-out: RdRp IC50): 13.7 µM
OC[C@H]1O[C@H]([S-])[C@H](O)[C@@H](O)[C@@H]1O.[Au+] [aurothioglucose]	4.77	100.73	13.9	–	–	–	ATPase inhibition [%] 20 µM (HC Helicase ATPase inhibition [%]) [4]: 106.07%; DTT nsp13 inhibition [%] 20 µM (DTT HC Helicase inhibition [%]) [2]: 98.65%; IC50 ([2]; read-out: DTT Helicase IC50): 10.6 µM; IC50 ([2]; read-out: Helicase IC50): 1.95 µM
CC1(C)C(/C=C/C=C/C=C/C=C2\N(CCCCS(=O)(=O)O)c3ccc4ccccc4c3C2(C)C)=[N+](CCCCS(=O)(=O)[O-])c2ccc3ccccc3c21 [cardiogreen]	4.44	–	26.52	–	–	–	ATPase inhibition [%] 20 µM (HC Helicase ATPase inhibition [%]) [4]: 97.11%; DTT Helicase ATPase activity PLUS DNA substrate 2 µM [4]: 51.49; DTT Helicase ATPase activity [%] 2 µM [4]: 60.43%; Helicase ATPase activity PLUS DNA substrate 2 µM [4]: 32.88; Helicase ATPase activity [%] 2 µM [4]: 45.65%; gain of ATPase activity reduction in the presence of dsDNA substrate [4]: 10–15%; remaining NTPase activity [4]: 60.4%; DTT Helicase unwinding inhibition [%] 2.5 µM triplicates [2]: 65% and 65.01%; DTT nsp13 inhibition [%] 20 µM (DTT HC Helicase inhibition [%]) [2]: 94.06%; Helicase unwinding inhibition 2.5 µM triplicates [2]: 66.59; IC50 ([2]; read-out: DTT Helicase IC50): 3.85 µM; IC50 ([2]; read-out: Helicase IC50): 3.57 µM
Cc1cc(N)c2ccccc2[n+]1CCCCCCCCCC[n+]1c(C)cc(N)c2ccccc21 [dequalinium chloride]	–	–	−4.04	25.6	4.07	94.6	–
O=C(Nc1ccc2c(O)cc(S(=O)(=O)[O-])cc2c1)Nc1ccc2c(O)cc(S(=O)(=O)[O-])cc2c1.[Na+].[Na+] [disodium 7,7′-(carbonyldiimino) bis(4-hydroxy-2-naphthalenesulfonate)]	90.5	84.75	–	–	–	–	IC50 ([1]; read-out: RdRp IC50): > 20 µM; DTT Helicase ATPase activity PLUS DNA substrate 2 µM [4]: 103.05; DTT Helicase ATPase activity [%] 2 µM [4]: 103.17%; DTT Helicase unwinding inhibition [%] 2.5 µM triplicates [2]: 6.27%; DTT nsp13 inhibition [%] 20 µM (DTT HC Helicase inhibition [%]) [2]: 65.72%; IC50 ([2]; read-out: DTT Helicase IC50): > 20 µM
CC1=NN(c2ccc(C)c(C)c2)C(=O)/C1=N\Nc1cccc(-c2cccc(C(=O)O)c2)c1O [eltrombopag olamine]	–	–	21.05	3.09	4.29	95.2	RdRp Tm °C 20 µM [6]: 41.5 °C; RdRp Tm °C 100 µM [6]: 43.6 °C
CCOc1ccc2nc3cc(N)ccc3c(N)c2c1 [ethacridine lactate]	–	–	32.09	35.5	9.96	80.3	–
O=C(c1cc(O)c(O)c(O)c1)c1ccc(O)c(O)c1O [exifone]	–	–	8.87	100	–	36.6	DTT Helicase ATPase activity PLUS DNA substrate 2 µM [4]: 2.64; DTT Helicase ATPase activity [%] 2 µM [4]: 14.53%; Helicase ATPase activity PLUS DNA substrate 2 µM [4]: 4.96; Helicase ATPase activity [%] 2 µM [4]: 11.33%; gain of ATPase activity reduction in the presence of dsDNA substrate [4]: 10–15%; remaining NTPase activity [4]: 14.5%; inhibition at 20 µM [4]: 104%; DTT Helicase unwinding inhibition [%] 2.5 µM triplicates [2]: 99.91%; inhibition at 2.5 µM [2, 7]: 99.9%; inhibition at 2.5 µM [2, 9]: 49.9%; Helicase Tm °C 20 µM [5]: 38.3 °C; Helicase Tm °C 100 µM [5]: 37.8 °C; effect on helicase Tm [5]: decrease in Tm
OCCOCCN1CCN(C(c2ccccc2)c2ccc(Cl)cc2)CC1 (centres unmarked) [hydroxyzine pamoate]	–	–	1.28	4.28	16.5	76.8	–
C=C1c2cccc(O)c2C(=O)C2=C(O)[C@]3(O)C(=O)C(C(N)=O)=C(O)[C@@H](N(C)C)[C@@H]3[C@@H](O)[C@H]12 [methacycline hydrochloride]	–	–	25.54	25.2	6.43	120	–
O=c1c(O)c(-c2ccc(O)cc2O)oc2cc(O)cc(O)c12 [morin hydrate (aurantica), morin hydrate]	95.67	39.33	20.36	–	–	–	IC50 ([1]; read-out: RdRp IC50): 5.96 µM
O=C(N/N=C/c1ccc([N+](=O)[O-])o1)c1cc([N+](=O)[O-])cc([N+](=O)[O-])c1O [nifursol]	–	–	8.54	5.5	11.5	100	–
O=C(O)c1cc(/N=N/c2ccc(O)c(C(=O)O)c2)ccc1O [olsalazine sodium]	–	–	12.75	–	14.4	84.7	–
Cc1c(Cl)c(C)[n+]([O-])c(Cl)c1-c1noc(-c2cc(O)c(O)c([N+](=O)[O-])c2)n1 [opicapone]	–	–	6.86	–	–	17.9	inhibition at 20 µM [4]: 96.9%; DTT nsp13 inhibition [%] 20 µM (DTT HC Helicase inhibition [%]) [2]: 51.40%; IC50 ([2]; DTT Helicase IC50 [µM]): 25.5 µM; IC50 ([2]; Helicase IC50 [µM]): 1.1 µM; inhibition at 20 µM ([2]; read-out: DTT nsp13 inhibition [%] 20 µM (DTT HC Helicase inhibition [%])): > 50%
CN(C)[C@@H]1C(O)=C(C(N)=O)C(=O)[C@@]2(O)C(O)=C3C(=O)c4c(O)cccc4[C@@](C)(O)[C@H]3[C@H](O)[C@@H]12 [oxytetracycline]	–	–	19.99	16.4	16.1	100	–
CO[C@H](C(=O)[C@@H](O)[C@@H](C)O)[C@@H]1Cc2cc3cc(O[C@H]4C[C@@H](O[C@H]5C[C@@H](O)[C@H](O)[C@@H](C)O5)[C@H](O)[C@@H](C)O4)c(C)c(O)c3c(O)c2C(=O)[C@H]1O[C@H]1C[C@@H](O[C@H]2C[C@@H](O[C@H]3C[C@](C)(O)[C@H](O)[C@@H](C)O3)[C@@H](O)[C@@H](C)O2)[C@H](O)[C@@H](C)O1 [plicamycin (mithramycin), plicamycin]	–	–	−3.94	95.8	–	6.39	DTT Helicase ATPase activity PLUS DNA substrate 2 µM [4]: 133.03; DTT Helicase ATPase activity [%] 2 µM [4]: 114.66%; Helicase ATPase activity PLUS DNA substrate 2 µM [4]: 159.86; Helicase ATPase activity [%] 2 µM [4]: 125.71%; remaining NTPase activity [4]: 114.6%; inhibition at 20 µM [4]: 19.8%; DTT Helicase unwinding inhibition [%] 2.5 µM triplicates [2]: 71.99%; DTT nsp13 inhibition [%] 20 µM (DTT HC Helicase inhibition [%]) [2]: 98.09%; mode of helicase inhibition towards dsDNA substrate [2]: competitive mode of inhibition towards the dsDNA substrate; IC50 ([2]; DTT Helicase IC50 [µM]): 1.35 µM; IC50 ([2]; Helicase IC50 [µM]): 3.57 µM; inhibition at 2.5 µM [2, 7]: 72%; inhibition at 2.5 µM [2, 9]: 39%; Helicase Tm °C 20 µM [5]: 38.3 °C; Helicase Tm °C 100 µM [5]: 38.9 °C; effect on helicase Tm [5]: did not result in a Tm change
COc1cc(NC(C)CCCN)c2ncccc2c1 (centres unmarked) [primaquine phosphate]	–	–	1.58	7.17	6.56	102	–
O=C(O)c1c(Cl)c(Cl)c(Cl)c(Cl)c1-c1c2cc(I)c(=O)c(I)c-2oc2c(I)c(O)c(I)cc12 [rose bengal sodium salt]	–	–	30.91	21.5	> 20	98	–
O=C1OC2(c3cc(I)c(O)c(I)c3Oc3c2cc(I)c(O)c3I)c2c(Cl)c(Cl)c(Cl)c(Cl)c21 [rose-bengal-lactone]	99.44	−2.61	35.69	–	–	–	–
FPA-124	7.70	–	−3.30	–	–	–	DTT nsp13 inhibition [%] 20 µM (DTT HC Helicase inhibition [%]) [2]: 64.76%
tyrphostin-AG-835	84.15	7.56	11.5	–	–	–	IC50 ([1]; read-out: RdRp IC50): 9.64 µM
